Reference: patent US12503455B2, “Nucleic acid-binding photoprobes and uses thereof” (Arrakis Therapeutics, Inc., priority 2017, dated 2025)
Several values for one entry are separate records, joined by “and”; a condition that tells them apart may be missing. Equal values may be shown once. Entries after “also recorded” stand apart in the source; their conditions may differ.

Tests used:
Aptamer 21 = assay: Surface plasmon resonance (SPR) binding to Aptamer 21; details: listed as ARK-139
From the text: (§1) Surface plasmon resonance (SPR) may be used to screen ligands and hook and click constructs for binding to a target RNA of interest. SPR is especially useful for monitoring biomolecular interactions in real time. Typically, target species and unrelated control are immobilized to a sensor chip, then analytes (compounds/fragments) are flowed over the surface. Binding of the compound to target species results in increase of SPR signal (association phase). Washing away bound compound with buffer results in a decrease of SPR signal (dissociation phase). Fitting of sensorgrams recorded at different compound concentrations is performed to an appropriate interaction model. The method allows extraction of kinetic parameters (ka, kd→KD). Requirements/limitations include that the ka/kd values be in reasonable ranges; and the target size must not be too large (<100 kDa). It is an excellent method to screen fragments and profile or validate hits. BC4000 may be used for primary screening (up to 4,000 data pts/week). Biacore T200 is suitable for hit profiling and validation.
In the PEARL-seq context, SPR allows monitoring binding of “hooks” to DNA/RNA aptamers. The target species is immobilized to sensor chip, analytes (i.e. hooks) are flowed over surface (association phase), DNA/RNA aptamer is flowed over surface (plateau phase), competitor compound is washed over surface (dissociation phase), thus yielding binding data.
Experiments were performed on a MASS-2 (Sierra Sensors) at 25° C. A high capacity amine chip was equilibrated with PBS. The chip was conditioned with alternating injections of 10 mM HCl and 10 mM NaOH in 1 M NaCl. The carboxymethylated dextran of the surface of the amine chip was activated for 7 minutes at a flow rate of 10 μL/min using a 1:1 volume ratio of 0.4 M 1-ethyl-3-(3-dimethylaminopropyl) carbodiimide (Sierra) and 0.1 M N-hydroxysuccinimide (Sierra). Neutravidin (70 μg/mL, Thermofisher) was injected over the activated surface for 10 minutes at a flow rate of 10 μl/min. Excess activated groups were blocked by an injection of 1 M ethanolamine, pH 8.5 (Sierra) for 7 minutes at a flow rate of 10 μl/min. A final injection of 10 mM NaOH in 1 M NaCl for 7 minutes at 10 μl/min was used to remove any unbound material to the chip. The immobilization reaction typically yielded approximately 12,000 resonance units (RU) of neutravidin. At least one spot in a channel was not injected with RNA and was used as a background control. Unrelated RNA was also used as a background control.
A 1 μM sample of biotin-aptamer 21 was prepared in RNAse free water, heated to 95° C. for 3 minutes, cooled on ice for 4 minutes, diluted with an equal volume 2× folding buffer (40 mM Tris-HCl, pH 8.0, 6 mM MgCl2, 200 mM KCl), and incubated at 37° C. for 30 minutes. The final concentration of RNA was 0.5 μM.
The MASS-2 was primed 2 times with 20 mM Tris-HCl, pH 8.0, 3 mM MgCl2, 100 mM KCl (Capture Buffer). RNA was injected over the neutravidin surface for 7 minutes at a flow rate of 10 μl/min. Capture levels typically reached approximately 3500-4500 of resonance units of aptamer 21.
Compounds were diluted 2-fold in 100% DMSO at a starting concentration of 500 μM.
The MASS-2 was primed 2 times with 20 mM Tris-HCl, pH 8.0, 3 mM MgCl2, 100 mM KCl, 1% DMSO (running buffer). Prior to testing compounds 3 injections of running buffer were used to equilibrate the sensor surface. […]

Aptamer 21-E = assay: SPR binding to mutant Aptamer 21-E; details: data not shown; listed as ARK-139
From the text: as §1
Experiments were performed on a MASS-2 (Sierra Sensors) at 25° C. A high capacity amine chip was equilibrated with PBS. The chip was conditioned with alternating injections of 10 mM HCl and 10 mM NaOH in 1 M NaCl. […]

Aptamer 21 RNA = assay: Online SEC-LCMS binding to Aptamer 21 RNA; details: for % of binding: RNA 1 uM
Experimental: Online SEC-LCMS has been used to study the binding to Aptamer 21 RNA against I-1 (ARK-139).
The RNA concentration was 1 μM and the ligand concentration ranged from 0.1 to 10 μM in an appropriate buffer (TRIS-HCl 20 mM pH 8.0, MgCl2 3 mM, KCl 100 mM).
The RNA/ligand mixtures were incubated at room temperature for 20 minutes in a 96-well plate format, then this plate was loaded into an autosampler linked to the chromatography system fitted with a reusable SEC column for rapid separation of target/ligand complexes from unbound components. RNA/ligand complexes in SEC eluent were monitored by UV detection, and an automated valving system directed the RNA peak to a reverse phase chromatography column for dissociation, desalting, and elution of any ligands into an ESI-MS system for identification.
All liquid chromatographic components were HP1200 modules. The mass spectrometer was the Waters LCT premier instrument operated in positive electrospray (ES+) TOF-MS mode. The mass range acquired was 80-1000 m/z in 0.25 s. The SEC column was 50×4.6 mm polyhydroxyethyl column. The SEC mobile phase was 50 mM phosphate buffer with 200 mM NaCl, pH=7.0. The LC column was a 2.1×50 mm C18 Phenomenex column. The gradient LC mobile phase A was 0.1% formic acid in water and B was acetonitrile/water with 0.1% formic acid. The run time was 7.9 min.
Binding of I-1 to Aptamer 21 was measured. SEC/LCMS conditions for this experiment were: [I-1]=5 uM, [RNA]=1 uM, Buffer=Tris-HCl 20 mM, KCl 100 mM, 3 mM MgCl2.

Aptamer-21 = details: Lau et al., ACS Nano 2011; read-out: Kd of Aptamer-21 against compound 1b; cited from earlier work
[1] = cited from earlier work

COC(=O)C1=C(COCc2cn(CCOCCOCCO)nn2)NC(c2ccncc2)=NC1c1ccc(F)cc1Cl (racemic) [I-1]
Kd (Aptamer 21; binding to Aptamer 21, read-out: calculated KD by SPR): 568 nM and 420 nM
binding to Aptamer 21 by SPR (Aptamer 21): binds; also recorded: SPR-active
binding to Aptamer 21-E by SPR (Aptamer 21-E): not to bind; also recorded: did not bind
% of binding (Aptamer 21 RNA; ARK-000139 conc 0.1 μM): 72.5%
% of binding (Aptamer 21 RNA; ARK-000139 conc 0.5 μM): 36.5%
% of binding (Aptamer 21 RNA; ARK-000139 conc 1 μM): 33.6%
% of binding (Aptamer 21 RNA; ARK-000139 conc 3 μM): 22.4%
% of binding (Aptamer 21 RNA; ARK-000139 conc 10 μM): 8.9%
binding to Aptamer 21 by SEC-MS (Aptamer 21 RNA; data not shown): confirmed
Kd (Aptamer-21): 50 nM
water solubility [1]: water-soluble
